Results on four compounds are retold here after PMC10622746, “Coadministration of ivermectin and abamectin affects milk pharmacokinetics of the antiparasitic clorsulon in Assaf sheep” (Frontiers in Veterinary Science, 2023).

Where two headings read alike, the source gives them in different places.

Series [1] is described as follows: Transepithelial transport of clorsulon across MDCKII parental cell monolayers. The note with it: dog, MDCK, MDCKII parental cells, clorsulon 10 μM, with or without ivermectin 10 μM, abamectin 2.5 μM, Ko143 1 μM, mean ± SD. In kind it is in vitro ADME, Canine.
Series [2] can be described thus: Plasma pharmacokinetics of clorsulon in lactating Assaf sheep. In kind it is in vivo. To be noted: female. As for the experimental part: (§1) Studies with sheep were carried out on the Experimental Farm of the University of León, following institutional guidelines in accordance with European legislation (2010/63/EU). Procedures were also approved by the Animal Care and Use Committee of the University of León ULE-008-2019 (25/09/2019). Eighteen lactating sheep (3–4 months in lactation) of between 77–83 kg were used. Animals were previously dewormed and they had ad libitum access to drinking water. Sheep were randomly distributed in three experimental groups. All received a subcutaneous (s.c.) injection of clorsulon at 2 mg/kg (dissolved in DMSO, 80 mg/mL); one group coadministrated with another s.c. injection of ivermectin at 0.2 mg/kg (Ivomec® 1%, Merial, France) and another group with another s.c. injection of abamectin at 0.2 mg/kg (dissolved in DMSO, 8 mg/mL). Blood samples were taken from the jugular vein, while milk samples were obtained after completing milking of the gland before each treatment and at intervals of 1, 2, 4, 6, 8, 10, 12, 24, 30, 48, 72, 96, 120 and 168 h thereafter. Plasma was separated by centrifuging at 1200 g 15 min. Samples were stored at −20°C until analyzed.
(§2) Samples were analyzed by HPLC under conditions which have been previously described ([31]). Briefly, the chromatographic system used included a Waters 2695 separation module and a Waters 2998 UV photodiode array detector. Separation was performed on a reversed-phase column ([…], […], Torrance, CA, United States). The mobile phase consisted of potassium phosphate 0.01 M (pH 7): acetonitrile (75:25). The flow rate was set at 1.20 mL/min, with UV absorbance measured at 225 nm, and the column temperature maintained at 35°C.
(§3) In vitro samples were injected directly into the HPLC system. In vivo samples, milk and plasma, were extracted following a formerly described method ([31]) with minor modifications. For milk and plasma samples, 10 μL of albendazole-2-aminosulfone (6.25 μg/mL) as internal standard and 200 μL of ethyl acetate were added to each 100 μL. Then, the mixture was vortexed horizontally for 1 min and centrifuged at 8000 g for 10 min at 4°C. The resulting supernatant was collected and subjected to evaporation under N2 at 30°C until dryness. To the evaporated samples, 500 μL of hexane and 300 μL of acetonitrile was added, the mixture was again vortexed horizontally for 1 min and centrifuged at 3000 g for 10 min at 4°C. Hexane was removed and the rest was evaporated to dryness under nitrogen stream. After being resuspended in 100 μL of cold methanol, samples were injected into the HPLC system.
(§4) Plasma and milk concentrations for each animal were analyzed using PK solution 2.0 computer program (Summit Research Services, Ashland, OH) to calculated pharmacokinetic parameters as previously described ([27]).

Series [3] is described as follows: Milk pharmacokinetics of clorsulon in lactating Assaf sheep. To be noted: clorsulon 2 mg/kg s.c., alone or with ivermectin or abamectin 0.2 mg/kg s.c., mean ± SD, n = 6. Type of series: in vivo. The method, then:
as §1, §2, §3, §4

The test system of series [4] is ovine ABCG2.
Method: (§5) This study employed Madin-Darby Canine Kidney (MDCKII) cells that had been previously transduced with ovine ABCG2. […] Briefly, cells were grown in DMEM (Dulbecco’s modified Eagle’s medium) enriched with glutamax (Life Technologies, Inc., Rockville, MD, United States) and supplemented with penicillin (50 units/mL), streptomycin (50 μg/mL), and 10% (v/v) fetal calf serum (MP Biomedicals, Solon, OH, United States) at a temperature of 37°C and 5% of CO2. Every 3 to 4 days, cells were trypsinized for subculturing.
(§6) Transcellular transport experiments using ovine ABCG2-transduced cells were conducted following the method previously described ([33]). Cells were seeded onto microporous polycarbonate membrane filters (3.0 μm pore size, 24 mm diameter; Transwell 3414; Costar, Corning, NY) at a density of 1.0 × 10^6 per well. The tightness of the monolayer was assessed by measuring its transcellular resistance using Millicell ERS (Millipore Burlington, MA).
(§7) Two hours before the beginning, preincubation was carried out replacing medium in both compartments with 2 mL of transport medium [Hanks’ balanced salt solution supplemented with HEPES (25 mM)] with or without the macrocyclic lactones (10 μM ivermectin and 2.5 μM abamectin). The experiment began with the replacement of the medium in either the apical or basal compartment with transport medium containing clorsulon (10 μM), with or without the same concentration of macrocyclic lactones. Aliquots of 100 μL at 1, 2 and 3 h in the opposite compartment were taken, this volume being replaced with fresh medium. At 4 h, 600 μL aliquots were taken in both compartments. Until analysis by high-performance liquid chromatography (HPLC), samples were stored at −20°C. After concluding the experiment, the confluence of the monolayer was evaluated by means of the Lucifer Yellow permeability assay ([34]). Transport proficiency of these cells was consistently verified through the evaluation of a typical ABCG2 substrate, danofloxacin ([25]).
(§8) The apparent permeability coefficients (Papp) across MDCKII parent and MDCKII oABCG2 cells monolayers in both apical to basal (A-B) (Papp A-B) and basal to apical (B-A) (Papp B-A) directions were calculated using following equation: Papp = (ΔQ/Δt)*(1/A*Co), where ΔQ/Δt is the rate of corresponding clorsulon appearing in the receiver chamber, which was obtained as the slope of the regression line on the transport time profile of clorsulon across the cell monolayers (from 0 to 4 h); Co is the initial concentration of drug; A is the cell monolayer surface area (4.67 cm^2). The efflux ratio is the Papp B-A/Papp A-B quotient.
The next series concerns murine ABCG2. The arrangement: method as in PMID 37078871. The note with it: murine ABCG2 transduced cell line; cited from earlier work.
For the next series, the system named is human ABCG2. The arrangement: method as in PMID 37078871. The note with it: human ABCG2 transduced cell line; cited from earlier work.
Details of series [5]: method as in earlier work. To be noted: cattle, s.c. 2 mg/kg clorsulon; cited from earlier work.
Series [6] relates to ovine ABCG2. Nature of the series: in vitro. The note with it: sheep.
Method: as §5, §6, §7, §8
Series [7] concerns ovine ABCG2. To be noted: at 25 μM in ovine ABCG2-transduced cells; cited from earlier work.
Setting [8] is: sc, clorsulon 2 mg/kg s.c., alone or with ivermectin or abamectin 0.2 mg/kg s.c., mean ± SD, n = 6.
Where [9] appears, read: MDCKII oABCG2 cells, ivermectin 10 μM, abamectin […], Ko143 1 μM.

One may read the Papp A→B as the apparent permeability from the apical to the basolateral side of a cell layer. In general, Papp B→A refers to the apparent permeability from the basolateral to the apical side of a cell layer. What is called AUC(0-inf) is the area under the concentration-time curve extrapolated to infinity. Read a high AUC(0-inf) as more exposure. The term Cmax denotes the highest concentration seen after dosing. Broadly, the MRT is the average time that molecules of a dose stay in the body. By Tmax is commonly meant the time at which the peak concentration occurs. For the compound `Nc1cc(C(Cl)=C(Cl)Cl)c(S(N)(=O)=O)cc1S(N)(=O)=O` [Clorsulon], the apparent permeability from apical to basolateral (Papp A→B) at 4 h, 10 μM in series [1] (n ≥ 3, read-out: AP-BL (Papp A-B)) stood at 2.27 ± 0.46 ×10⁻⁶ cm/s; in the series on ovine ABCG2 [6], 1.13 ± 0.16 ×10⁻⁶ cm/s. The basolateral-to-apical permeability (Papp B→A) at 4 h, 10 μM was found to be 2.41 ± 0.46 ×10⁻⁶ cm/s in series [1] (n ≥ 3, read-out: BL-AP (Papp B-A)) and 3.23 ± 0.88 ×10⁻⁶ cm/s in the series with ovine ABCG2 [6]. The efflux ratio at 4 h, 10 μM was 1.07 ± 0.06 in [1] (read-out: Efflux ratio Papp B-A/Papp A-B) and 2.92 ± 0.93 in the series on ovine ABCG2 [6]. Also, the total exposure AUC(0-inf) in series [2] (setting [8]) came out at 43300 ± 6400 ng·h/mL; in series [3] (female, Assaf, sc, sheep milk), 20700 ± 4970 ng·h/mL. Further, the Cmax in series [2] (setting [8]) came out at 2130 ± 280 ng/mL; in series [3] (female, Assaf, sc, sheep milk) it was 650 ± 290 ng/mL. The mean residence time MRT in series [2] (setting [8]) came to 25 ± 3.97 h; in [3] (female, Assaf, sc, sheep milk), 40.8 ± 6.15 h. In addition, the Tmax stood at 6.67 ± 1.93 h in series [2] (setting [8]) and 10 ± 1.26 h in series [3] (female, Assaf, sc, sheep milk). The half-life was 19 ± 2.38 h in series [2] (sc, clorsulon 2 mg/kg s.c., alone or with ivermectin or abamectin 0.2 mg/kg s.c., mean ± SD, n = 6, read-out: T1/2 of clorsulon in plasma (converted)) and 25.9 ± 3.72 h in [3] (female, Assaf, sc, sheep milk, read-out: T1/2 of clorsulon in milk (converted)). In series [2] (subcutaneous, 8 h after clorsulon 2 mg/kg s.c., alone or with ivermectin 0.2 mg/kg s.c.), the concentration at 8 h was determined as 1950 ± 240 ng/mL. In addition, the Kp in series [3] (female, Assaf, milk/plasma, subcutaneous, sheep, read-out: AUC milk/AUC plasma) came to 0.49 ± 0.14. Besides, the “Dose excreted (%) in milk (72 h)” value in [3] (sheep milk, 72 h) is reported as 0.86 ± 0.28%. Further, the “Transport by ovine ABCG2 (substrate, in words)” value in the series with ovine ABCG2 [4] (MDCKII oABCG2 cells, clorsulon 10 μM) was “efficiently transported”. For the same compound, the Efflux transport ratio is listed as 2.20 ± 0.13 in the series with murine ABCG2 and 1.63 ± 0.17 in the series on human ABCG2. In addition, the Maximum plasma concentration in series [5] was 2.5 µg/mL. For the same compound, the “Time of maximum plasma concentration” value in series [5] is on record as 6 h.

Regarding `COc1ccc2c3c([nH]c2c1)[C@H](CC(C)C)N1C(=O)[C@H](CCC(=O)OC(C)(C)C)NC(=O)[C@@H]1C3` [Ko143], the “Inhibition of clorsulon (10 μM) transport mediated by ovine ABCG2 (in words)” value (from here on “Inhibition of clorsulon”) in the series with ovine ABCG2 [4] (setting [9]) is “complete inhibition”.

Turning to Abamectin, in the series with ovine ABCG2 [4] (setting [9]), the “Inhibition of clorsulon” value is reported as “effectively inhibited”.

With Ivermectin, the “Inhibition of clorsulon” value in the series with ovine ABCG2 [4] is reported as “effectively inhibited”. Also, the Inhibition potency value in the series on ovine ABCG2 [7] is recorded as 45.9%.
